Measured values taken from publication PMC6630832, “3-Vinylazetidin-2-Ones: Synthesis, Antiproliferative and Tubulin Destabilizing Activity in MCF-7 and MDA-MB-231 Breast Cancer Cells” (Pharmaceuticals, 2019).
Like-named read-outs stand apart in the source and are kept apart here.

Key:
Format in all cases: cell-based
MCF-7 cells = experiment: Lactate dehydrogenase (LDH) assay for cytotoxicity; conditions: Homo sapiens, MCF7, 72 h, read-out: cell death (LDH assay)
Experimental: Cytotoxicity was determined using the CytoTox 96 non-radioactive cytotoxicity assay (Promega Corporation; 2800 Woods Hollow Road, Madison, WI, USA) following the manufacturer’s protocol. Briefly, MCF-7 cells were seeded in 96-well plates, incubated for 24 hr and then treated with test compounds (7d, 7h, 7i, 7q, 7r, 7u, 7t, 10d, 10f, 12) as described in the cell viability assay above. After 72 h, 20 μL of ‘lysis solution (10X)’ was added to control wells and the plate was incubated for a further 1 hr to ensure 100% death. 50 μL of supernatant was carefully removed from each well and transferred to a new 96-well plate. 50 μL of reconstituted ‘substrate mix’ was added and the plate was placed in the dark at room temperature for 30 min. After this period, 50 μL of ‘stop solution’ was added to each well and the absorbance was read at a wavelength of 490 nm using a Dynatech MR5000 plate reader. The percentage cell death at 10 μM was calculated.

HCT-116 = experiment: NCI60 screen (SRB), Colon Cancer; conditions: Homo sapiens
SF295 = experiment: NCI60 screen (SRB), CNS Cancer; conditions: Homo sapiens, SF-295
MDA-MB-468 = experiment: NCI60 screen (SRB), Breast cancer; conditions: Homo sapiens
MDA-MB-435 = experiment: NCI60 screen (SRB), Melanoma; conditions: Homo sapiens
KM12 = experiment: NCI60 screen (SRB), Colon Cancer; conditions: Homo sapiens
OVCAR-5 = experiment: NCI60 screen (SRB), Ovarian cancer; conditions: Homo sapiens
HS 578T = experiment: NCI60 screen (SRB), Breast cancer; conditions: Homo sapiens
UACC-257 = experiment: NCI60 screen (SRB), Melanoma; conditions: Homo sapiens
OVCAR-3 = experiment: NCI60 screen (SRB), Ovarian cancer; conditions: Homo sapiens
SNB-19 = experiment: NCI60 screen (SRB), CNS Cancer; conditions: Homo sapiens
HCT-15 = experiment: NCI60 screen (SRB), Colon Cancer; conditions: Homo sapiens
SNB-75 = experiment: NCI60 screen (SRB), CNS Cancer; conditions: Homo sapiens
M14 = experiment: NCI60 screen (SRB), Melanoma; conditions: Homo sapiens
MCF-7 = experiment: NCI60 screen (SRB), Breast cancer; conditions: Homo sapiens, MCF7
OVCAR-4 = experiment: NCI60 screen (SRB), Ovarian cancer; conditions: Homo sapiens
UACC-62 = experiment: NCI60 screen (SRB), Melanoma; conditions: Homo sapiens
LOX IMVI = experiment: NCI60 screen (SRB), Melanoma; conditions: Homo sapiens
T-47D = experiment: NCI60 screen (SRB), Breast cancer; conditions: Homo sapiens, T47D
SK-OV-3 = experiment: NCI60 screen (SRB), Ovarian cancer; conditions: Homo sapiens
ACHN = experiment: NCI60 screen (SRB), Renal cancer; conditions: Homo sapiens
HL-60(TB) = experiment: NCI60 screen (SRB), Leukemia; conditions: Homo sapiens; NCI60 Leukemia cell line HL-60(TB)
OVCAR-8 = experiment: NCI60 screen (SRB), Ovarian cancer; conditions: Homo sapiens
RPMI-8226 = experiment: NCI60 screen (SRB), Leukemia; conditions: Homo sapiens
K-562 = experiment: NCI60 screen (SRB), Leukemia; conditions: Homo sapiens, K562
[1] = NCI60 Colon Cancer cell line HCT-116, read-out: GI50
[2] = NCI60 CNS Cancer cell line SF295, read-out: GI50
[3] = NCI60 Breast cancer cell line MDA-MB-468, read-out: GI50
[4] = NCI60 Melanoma cell line MDA-MB-435, read-out: GI50
[5] = NCI60 Colon Cancer cell line KM12, read-out: GI50
[6] = NCI60 Ovarian cancer cell line OVCAR-5, read-out: GI50
[7] = NCI60 Breast cancer cell line HS 578T, read-out: GI50
[8] = NCI60 Melanoma cell line UACC-257, read-out: GI50
[9] = NCI60 Ovarian cancer cell line OVCAR-3, read-out: GI50
[10] = NCI60 CNS Cancer cell line SNB-19, read-out: GI50
[11] = NCI60 Colon Cancer cell line HCT-15, read-out: GI50
[12] = NCI60 CNS Cancer cell line SNB-75, read-out: GI50
[13] = NCI60 Melanoma cell line M14, read-out: GI50
[14] = NCI result in MCF-7 cells, read-out: GI50
[15] = NCI60 Ovarian cancer cell line OVCAR-4, read-out: GI50
[16] = NCI60 Melanoma cell line UACC-62, read-out: GI50
[17] = NCI60 Melanoma cell line LOX IMVI, read-out: GI50
[18] = NCI60 Breast cancer cell line T-47D, read-out: GI50
[19] = NCI60 Ovarian cancer cell line SK-OV-3, read-out: GI50
[20] = NCI60 Renal cancer cell line ACHN, read-out: GI50
[21] = NCI60 Ovarian cancer cell line OVCAR-8, read-out: GI50
[22] = NCI60 Leukemia cell line RPMI-8226, read-out: GI50
[23] = NCI60 Leukemia cell line K-562, read-out: GI50

With COc1ccc(/C=C\c2cc(OC)c(OC)c(OC)c2)cc1O [CA-4, Combretastatin A-4, reference compound] as the compound, how does the cytotoxicity at 10 µM (MCF-7 cells) read?
The cytotoxicity at 10 µM was 11.8%.

Which results are given for C=CC1C(=O)N(c2cc(OC)c(OC)c(OC)c2)C1c1ccc(OC)cc1 (stereo not shown) [Compound 7h, 4-(4-Methoxyphenyl)-1-(3,4,5-trimethoxyphenyl)-3-vinylazetidin-2-one]?
GI50 (HCT-116; HCT-116): 30.7 nM; GI50 (SF295): 35.8 nM; GI50 (MDA-MB-468; MDA-MB-468): 22.7 nM; GI50 (MDA-MB-435; MDA-MB-435): 22.6 nM; GI50 (KM12; KM12): 35.1 nM; GI50 (OVCAR-5; OVCAR-5): 58.7 nM; GI50 (HS 578T; Hs-578T): 72.7 nM; GI50 (UACC-257; UACC-257): 42200 nM; cytotoxicity at 10 µM (MCF-7 cells): 2.4%; GI50 (OVCAR-3; OVCAR-3): 25.1 nM; GI50 (SNB-19; SNB-19): 54.2 nM; GI50 (HCT-15; HCT-15): 37.1 nM; GI50 (SNB-75; SNB-75): 37.2 nM; GI50 (M14; M14): 25.2 nM; GI50 (MCF-7): 30.6 nM; GI50 (OVCAR-4; OVCAR-4): 77.6 nM; GI50 (UACC-62; UACC-62): 50.2 nM; GI50 (LOX IMVI; LOX IMVI): 41.6 nM; GI50 (T-47D): 20500 nM; GI50 (SK-OV-3; SK-OV-3): 28.5 nM; GI50 (ACHN; ACHN): 61.5 nM

Which results are given for C=CC1C(=O)N(c2cc(OC)c(OC)c(OC)c2)C1c1ccc(OC)c(O)c1 (stereo not shown) [Compound 7s, 4-[3-Hydroxy-4-methoxyphenyl]-1-(3,4,5-trimethoxyphenyl)-3-vinylazetidin-2-one]?
GI50 (HCT-116; [1]): < 10 nM; GI50 (SF295; [2]): 271 nM; GI50 (MDA-MB-468; [3]): < 10 nM; GI50 (MDA-MB-435; [4]): < 10 nM; GI50 (KM12; [5]): < 10 nM; GI50 (OVCAR-5; [6]): 45.3 nM; GI50 (HS 578T; [7]): < 10 nM; GI50 (UACC-257; [8]): > 100000 nM; cytotoxicity at 10 µM (MCF-7 cells): 16.1%; GI50 (OVCAR-3; [9]): < 10 nM; GI50 (SNB-19; [10]): 40.5 nM; GI50 (HCT-15; [11]): 18 nM; GI50 (SNB-75; [12]): 15.3 nM; GI50 (M14; [13]): < 10 nM; GI50 (MCF-7; [14]): < 10 nM; GI50 (OVCAR-4; [15]): 13.1 nM; GI50 (UACC-62; [16]): < 10 nM; GI50 (LOX IMVI; [17]): < 10 nM; GI50 (T-47D; [18]): 29.9 nM; GI50 (SK-OV-3; [19]): 10.5 nM; GI50 (ACHN; [20]): < 10 nM

C=CC1C(=O)N(c2cc(OC)c(OC)c(OC)c2)C1c1ccc(OC)c(N)c1 (stereo not shown) [Compound 7t, 4-(3-Amino-4-methoxyphenyl)-1-(3,4,5-trimethoxyphenyl)-3-vinylazetidin-2-one] was tested. Which GI50 (HCT-116; HCT-116) did it give?
The GI50 was 27.6 nM.

And the GI50 (SF295)?
Its GI50 is 21.3 nM.

What about the GI50 (MDA-MB-468; MDA-MB-468) of the same compound?
The GI50 was less than 10 nM.

What about the GI50 (MDA-MB-435; MDA-MB-435) of the same compound?
Its GI50 is less than 10 nM.

What about the GI50 (KM12; KM12) of the same compound?
The GI50 was 24.2 nM.

And the GI50 (OVCAR-5; OVCAR-5)?
The GI50 was 44.6 nM.

What about the GI50 (HS 578T; Hs-578T) of the same compound?
Its GI50 is 39.8 nM.

What about the GI50 (UACC-257; UACC-257) of the same compound?
Its GI50 is greater than 100000 nM.

And the cytotoxicity at 10 µM (MCF-7 cells)?
The cytotoxicity at 10 µM was 25%.

What about the GI50 (OVCAR-3; OVCAR-3) of the same compound?
The GI50 was 18.1 nM.

What about the GI50 (SNB-19; SNB-19) of the same compound?
The GI50 was 49 nM.

And the GI50 (HCT-15; HCT-15)?
The GI50 was 28.7 nM.

And the GI50 (SNB-75; SNB-75)?
The GI50 was 30.1 nM.

And the GI50 (M14; M14)?
The GI50 was 27.2 nM.

And the GI50 (MCF-7)?
Its GI50 is less than 10 nM.

What about the GI50 (HL-60(TB)) of the same compound?
The GI50 was 13.7 nM.

And the GI50 (OVCAR-4; OVCAR-4)?
The GI50 was less than 10 nM.

What about the GI50 (UACC-62; UACC-62) of the same compound?
Its GI50 is 12300 nM.

What about the GI50 (OVCAR-8; OVCAR-8) of the same compound?
Its GI50 is 14.8 nM.

And the GI50 (LOX IMVI; LOX IMVI)?
Its GI50 is less than 10 nM.

And the GI50 (RPMI-8226; RPMI-8226)?
Its GI50 is less than 10 nM.

What about the GI50 (K-562) of the same compound?
The GI50 was 37.2 nM.

And the GI50 (SK-OV-3; SK-OV-3)?
Its GI50 is 45.7 nM.

And the GI50 (ACHN; ACHN)?
Its GI50 is 37.3 nM.

Which results are given for C=CC1C(=O)N(c2cc(OC)c(OC)c(OC)c2)C1c1ccc(OC)c(OP(=O)(O)O)c1 (stereo not shown) [Compound 17b, 2-Methoxy-5-(1-(3,4,5-trimethoxyphenyl)-4-oxo-3-vinylazetidin-2-yl)phenyl dihydrogen phosphate]?
GI50 (HCT-116; [1]): 43.9 nM; GI50 (SF295; [2]): 29.1 nM; GI50 (MDA-MB-468; [3]): 49.6 nM; GI50 (MDA-MB-435; [4]): 21 nM; GI50 (KM12; [5]): 39.1 nM; GI50 (OVCAR-5; [6]): 3570 nM; GI50 (HS 578T; [7]): 53.1 nM; GI50 (UACC-257; [8]): > 100000 nM; GI50 (OVCAR-3; [9]): 49.7 nM; GI50 (SNB-19; [10]): 459 nM; GI50 (HCT-15; [11]): 47.4 nM; GI50 (SNB-75; [12]): 36.5 nM; GI50 (M14; [13]): 748 nM; GI50 (MCF-7; [14]): 39.4 nM; GI50 (HL-60(TB)): 27.3 nM; GI50 (OVCAR-4; [15]): 160 nM; GI50 (UACC-62; [16]): 51.1 nM; GI50 (OVCAR-8; [21]): 44.2 nM; GI50 (LOX IMVI; [17]): 42.2 nM; GI50 (T-47D; [18]): > 100000 nM; GI50 (RPMI-8226; [22]): 80.2 nM; GI50 (K-562; [23]): 41.5 nM; GI50 (SK-OV-3; [19]): 97.7 nM; GI50 (ACHN; [20]): 64.5 nM

Which results are given for CCC1C(=O)N(c2cc(OC)c(OC)c(OC)c2)C1c1ccc(OC)c(OP(=O)(O)O)c1 (stereo not shown) [Compound 17c, 5-(3-Ethyl-1-(3,4,5-trimethoxyphenyl)-4-oxoazetidin-2-yl)-2-methoxyphenyl dihydrogen phosphate]?
GI50 (HCT-116; [1]): 35 nM; GI50 (SF295; [2]): 24.3 nM; GI50 (MDA-MB-468; [3]): 27.6 nM; GI50 (MDA-MB-435; [4]): 12.8 nM; GI50 (KM12; [5]): 22 nM; GI50 (OVCAR-5; [6]): 444 nM; GI50 (HS 578T; [7]): 37.1 nM; GI50 (UACC-257; [8]): > 100000 nM; GI50 (OVCAR-3; [9]): 36.8 nM; GI50 (SNB-19; [10]): 63.9 nM; GI50 (HCT-15; [11]): 29.6 nM; GI50 (SNB-75; [12]): 23.7 nM; GI50 (M14; [13]): 31.7 nM; GI50 (MCF-7; [14]): 25.1 nM; GI50 (HL-60(TB)): 28.8 nM; GI50 (OVCAR-4; [15]): 168 nM; GI50 (UACC-62; [16]): 34.8 nM; GI50 (OVCAR-8; [21]): 32.7 nM; GI50 (LOX IMVI; [17]): 24.1 nM; GI50 (T-47D; [18]): > 100000 nM; GI50 (RPMI-8226; [22]): 48.2 nM; GI50 (K-562; [23]): 35 nM; GI50 (SK-OV-3; [19]): 34.1 nM; GI50 (ACHN; [20]): 38.5 nM
